Molecular target: T1, Human TRPC6 (Homo sapiens, UniProt Q9Y210)
T1 construct: expressed in transfected cells
T1 sequence (Q9Y210 1-931): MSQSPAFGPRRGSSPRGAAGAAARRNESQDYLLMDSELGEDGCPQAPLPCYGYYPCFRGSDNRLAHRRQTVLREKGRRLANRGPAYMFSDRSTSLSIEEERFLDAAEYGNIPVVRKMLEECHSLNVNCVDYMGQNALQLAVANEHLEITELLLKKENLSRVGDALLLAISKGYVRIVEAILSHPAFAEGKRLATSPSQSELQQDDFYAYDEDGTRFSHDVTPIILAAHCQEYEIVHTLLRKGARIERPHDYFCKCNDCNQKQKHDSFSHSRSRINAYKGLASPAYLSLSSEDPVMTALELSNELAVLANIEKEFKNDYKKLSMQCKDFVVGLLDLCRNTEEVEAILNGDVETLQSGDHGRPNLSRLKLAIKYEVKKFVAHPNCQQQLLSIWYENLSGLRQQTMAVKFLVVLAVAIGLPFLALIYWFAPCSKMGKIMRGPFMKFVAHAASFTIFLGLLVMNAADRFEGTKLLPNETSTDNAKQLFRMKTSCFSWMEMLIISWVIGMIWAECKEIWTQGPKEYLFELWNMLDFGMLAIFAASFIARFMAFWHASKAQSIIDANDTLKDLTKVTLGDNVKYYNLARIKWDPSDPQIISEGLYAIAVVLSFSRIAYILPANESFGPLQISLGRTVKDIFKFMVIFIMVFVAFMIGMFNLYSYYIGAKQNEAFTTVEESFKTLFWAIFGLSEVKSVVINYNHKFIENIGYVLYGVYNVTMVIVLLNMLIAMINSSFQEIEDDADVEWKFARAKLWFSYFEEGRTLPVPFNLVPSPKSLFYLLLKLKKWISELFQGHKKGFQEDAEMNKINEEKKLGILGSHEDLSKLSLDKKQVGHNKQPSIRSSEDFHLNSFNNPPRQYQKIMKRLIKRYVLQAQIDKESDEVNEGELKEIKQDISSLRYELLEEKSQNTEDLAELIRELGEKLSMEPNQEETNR
Experiment: Evaluation of TRPC6 channel inhibitory activity (2), HEK293 cells with stably introduced human TRPC6, OAG stimulation, FLIPR tetra (Compound Nos. 1293 to 1405)
Format: cell-based
Details: HEK293 cells with stably introduced human TRPC6, OAG 50 μM/0.5% DMSO, read-out: Inhibitory activity (pIC50 class) (converted)
How it was run: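 Calcium-dye-loaded HEK293 cells stably expressing human TRPC6 were pretreated with compound for 25 min, then stimulated with 50 μM OAG (0.5% DMSO) in Ca ringer buffer pH 7.2 with 2 mM CaCl2. Background-subtracted FLIPR calcium peaks were normalized to OAG (100%) and buffer (0%); pIC50 came from four-parameter logistic fit, binned as +/++/+++.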

Q: Which IC50 does the source give for `Cn1nc(C2CC2)cc1Oc1cc(Cl)ccc1-c1ncc(CN)cn1` [compound 1355, [2-[4-chloro-2-(5-cyclopropyl-2-methylpyrazol-3-yl)oxyphenyl]pyrimidin-5-yl]methanamine] here?
A: 10 to 1000 nM

Q: Which IC50 does the source give for `Cc1nc(Oc2cc(Cl)ccc2-c2ncc([C@@H](F)CN)cn2)cc(N2CCOCC2)n1` [compound 1374, (2R)-2-[2-[4-chloro-2-(2-methyl-6-morpholin-4-ylpyrimidin-4-yl)oxyphenyl]pyrimidin-5-yl]-2-fluoroethanamine] here?
A: 10 to 1000 nM

Q: With `Cn1nc(-c2ccccn2)cc1Oc1cc(Cl)ccc1-c1ccc([C@H](N)C(F)(F)F)cn1` [compound 1379, (1S)-1-[6-[4-chloro-2-(2-methyl-5-pyridin-2-ylpyrazol-3-yl)oxyphenyl]pyridin-3-yl]-2,2,2-trifluoroethanamine] as the compound, how does the IC50 read?
A: > 1000 nM

Q: `Cc1cc(Oc2cc(Cl)ccc2-c2ncc(CCN)cn2)cc(N2CCOCC2)n1` [compound 1311, 2-[2-[4-chloro-2-(2-methyl-6-morpholin-4-ylpyridin-4-yl)oxyphenyl]pyrimidin-5-yl]ethanamine] was tested. Which IC50 did it give?
A: 10 to 1000 nM

Q: Which IC50 does the source give for `Cn1nc(-c2ccccn2)cc1Oc1cc(Cl)cc(F)c1-c1ccc(CN)cn1` [compound 1404, [6-[4-chloro-2-fluoro-6-(2-methyl-5-pyridin-2-ylpyrazol-3-yl)oxyphenyl]pyridin-3-yl]methanamine] here?
A: < 10 nM

Q: For `COc1nc(-c2ccc(C#N)cc2Oc2cc(-c3ccccn3)nn2C)ncc1[C@@H](O)CN` [compound 1327, 4-[5-[(1R)-2-amino-1-hydroxyethyl]-4-methoxypyrimidin-2-yl]-3-(2-methyl-5-pyridin-2-ylpyrazol-3-yl)oxybenzonitrile], which IC50 is on record?
A: 10 to 1000 nM

Q: For `Cn1nc(C2CCOCC2)cc1Oc1cc(C#N)ccc1-c1ncc([C@H](F)CN)cn1` [compound 1314, 4-[5-[(1S)-2-amino-1-fluoroethyl]pyrimidin-2-yl]-3-[2-methyl-5-(oxan-4-yl)pyrazol-3-yl]oxybenzonitrile], which IC50 is on record?
A: 10 to 1000 nM

Q: For `Cc1cc(Oc2cc(C#N)ccc2-c2ccc([C@@H](F)CN)cn2)cc(N2CCOCC2)n1` [compound 1299, 4-[5-[(1R)-2-amino-1-fluoroethyl]pyridin-2-yl]-3-(2-methyl-6-morpholin-4-ylpyridin-4-yl)oxybenzonitrile], which IC50 is on record?
A: < 10 nM

Q: `Cc1cc(Oc2cc(Cl)ccc2-c2ccc([C@H](O)CN)cn2)cc(N2CCOCC2)n1` [compound 1396, (1S)-2-amino-1-[6-[4-chloro-2-(2-methyl-6-morpholin-4-ylpyridin-4-yl)oxyphenyl]pyridin-3-yl]ethanol] was tested. Which IC50 did it give?
A: 10 to 1000 nM

Q: How did the IC50 turn out when `Cn1nc(-c2ccccn2)cc1Oc1cc(C#N)ccc1-c1ncc([C@H](F)CN)cn1` [compound 1296, 4-[5-[(1S)-2-amino-1-fluoroethyl]pyrimidin-2-yl]-3-(2-methyl-5-pyridin-2-ylpyrazol-3-yl)oxybenzonitrile] was run?
A: < 10 nM

Q: `Cc1cc(Oc2cc(Cl)ccc2-c2ncc([C@@H](F)CN)cn2)cc(N2CCOCC2)n1` [compound 1336, (2R)-2-[2-[4-chloro-2-(2-methyl-6-morpholin-4-ylpyridin-4-yl)oxyphenyl]pyrimidin-5-yl]-2-fluoroethanamine] was tested. Which IC50 did it give?
A: 10 to 1000 nM

Q: How did the IC50 turn out when `Cn1nc(-c2ccccn2)cc1Oc1cc(F)ccc1-c1ncc([C@@H](F)CN)cn1` [compound 1342, (2R)-2-fluoro-2-[2-[4-fluoro-2-(2-methyl-5-pyridin-2-ylpyrazol-3-yl)oxyphenyl]pyrimidin-5-yl]ethanamine] was run?
A: 10 to 1000 nM

Q: For `Cn1nc(-c2ccccn2)cc1Oc1cc(Cl)ccc1-c1ccc([C@@H](N)CO)cn1` [compound 1363, (2R)-2-amino-2-[6-[4-chloro-2-(2-methyl-5-pyridin-2-ylpyrazol-3-yl)oxyphenyl]pyridin-3-yl]ethanol], which IC50 is on record?
A: > 1000 nM

Q: With `Cn1nc(C2CC2)cc1Oc1cc(F)ccc1-c1ncc(C(F)CN)cn1` (stereo in doubt) [compound 1381, (2S)-2-[2-[2-(5-cyclopropyl-2-methylpyrazol-3-yl)oxy-4-fluorophenyl]pyrimidin-5-yl]-2-fluoroethanamine] as the compound, how does the IC50 read?
A: > 1000 nM

Q: Which IC50 does the source give for `Cn1nc([C@H]2CCOC2)cc1Oc1cc(Cl)ccc1-c1ncc([C@@H](F)CN)cn1` [compound 1352, (2R)-2-[2-[4-chloro-2-[2-methyl-5-[(3R)-oxolan-3-yl]pyrazol-3-yl]oxyphenyl]pyrimidin-5-yl]-2-fluoroethanamine] here?
A: 10 to 1000 nM

Q: For `Cc1cc(Oc2cc(Cl)cnc2-c2ccc([C@H](F)CN)cn2)cc(N2CCOCC2)n1` [compound 1398], which IC50 is on record?
A: < 10 nM

Q: For `Cc1cc(Oc2cc(Cl)ccc2-c2ncc(CN)cn2)cc(N2CCOCC2)n1` [compound 1315, [2-[4-chloro-2-(2-methyl-6-morpholin-4-ylpyridin-4-yl)oxyphenyl]pyrimidin-5-yl]methanamine], which IC50 is on record?
A: 10 to 1000 nM

Q: With `Cn1nc(-c2ccccn2)cc1Oc1cc(C#N)ccc1-c1ccc(CN)nn1` [compound 1326, 4-[6-(aminomethyl)pyridazin-3-yl]-3-(2-methyl-5-pyridin-2-ylpyrazol-3-yl)oxybenzonitrile] as the compound, how does the IC50 read?
A: 10 to 1000 nM

Q: How did the IC50 turn out when `Cn1nc(-c2ccccn2)cc1Oc1cc(C#N)ccc1-c1cc(Cl)c(CN)cn1` [compound 1316, 4-[5-(aminomethyl)-4-chloropyridin-2-yl]-3-(2-methyl-5-pyridin-2-ylpyrazol-3-yl)oxybenzonitrile] was run?
A: < 10 nM

Q: Which IC50 does the source give for `Cn1nc(-c2ccccn2)cc1Oc1cc(F)ccc1-c1ncc(CN)cn1` [compound 1341, [2-[4-fluoro-2-(2-methyl-5-pyridin-2-ylpyrazol-3-yl)oxyphenyl]pyrimidin-5-yl]methanamine] here?
A: 10 to 1000 nM

Q: For `Cn1nc(-c2ccccn2)cc1Oc1cc(Cl)ccc1-c1ncc([C@H](F)CN)cn1` [compound 1324, (2S)-2-[2-[4-chloro-2-(2-methyl-5-pyridin-2-ylpyrazol-3 yl)oxyphenyl]pyrimidin-5-yl]-2-fluoroethanamine], which IC50 is on record?
A: < 10 nM

Q: With `Cn1nc(-c2ccccc2)nc1Oc1cc(Cl)ccc1-c1ncc(CN)cn1` [compound 1364, [2-[4-chloro-2-[(2-methyl-5-phenyl 1,2,4-triazol-3-yl)oxy]phenyl]pyrimidin-5-yl]methanamine] as the compound, how does the IC50 read?
A: > 1000 nM

Q: How did the IC50 turn out when `Cn1nc(-c2ccccn2)cc1Oc1cc(Cl)cnc1-c1ncc(CN)cn1` [compound 1351, [2-[5-chloro-3-(2-methyl-5-pyridin-2-ylpyrazol-3-yl)oxypyridin-2-yl]pyrimidin-5-yl]methanamine] was run?
A: > 1000 nM

Q: For `Cn1nc(C2CCOCC2)cc1Oc1cc(Cl)cnc1-c1ccc([C@H](F)CN)cn1` [compound 1373, (2S)-2-[6-[5-chloro-3-[2-methyl-5-(oxan-4-yl)pyrazol-3-yl]oxypyridin-2-yl]pyridin-3-yl]-2-fluoroethanamine], which IC50 is on record?
A: < 10 nM

Q: For `Cn1nc([C@H]2CCOC2)cc1Oc1cc(Cl)ccc1-c1ncc([C@H](F)CN)cn1` [compound 1344, (2S)-2-[2-[4-chloro-2-[2-methyl-5-[(3R)-oxolan-3-yl]pyrazol-3-yl]oxyphenyl]pyrimidin-5-yl]-2-fluoroethanamine], which IC50 is on record?
A: > 1000 nM

Q: With `Cn1nc(C2CCOCC2)cc1Oc1cc(Cl)ccc1-c1ncc([C@H](F)CN)cn1` [compound 1359, (2S)-2-[2-[4-chloro-2-[2-methyl-5-(oxan-4-yl)pyrazol-3-yl]oxyphenyl]pyrimidin-5-yl]-2-fluoroethanamine] as the compound, how does the IC50 read?
A: 10 to 1000 nM

Q: For `Cn1nc(-c2ccccn2)cc1Oc1cc(Cl)ccc1-c1ccc([C@@H](O)CN)cn1` [compound 1401, (1R)-2-amino-1-[6-[4-chloro-2-(2-methyl-5-pyridin-2-ylpyrazol-3-yl)oxyphenyl]pyridin-3-yl]ethanol], which IC50 is on record?
A: 10 to 1000 nM

Q: How did the IC50 turn out when `Cn1nc(C2CC2)cc1Oc1cc(F)ccc1-c1ncc([C@H](O)CN)cn1` [compound 1383, (1S)-2-amino-1-[2-[2-(5-cyclopropyl-2-methylpyrazol-3-yl)oxy-4-fluorophenyl]pyrimidin-5-yl]ethanol] was run?
A: 10 to 1000 nM

Q: With `Cc1nc(Oc2cc(Cl)ccc2-c2ncc(CCN)cn2)c(C)c(N2CCOCC2)n1` [compound 1405, 2-[2-[4-chloro-2-(2,5-dimethyl-6-morpholin-4-ylpyrimidin-4-yl)oxyphenyl]pyrimidin-5-yl]ethanamine] as the compound, how does the IC50 read?
A: > 1000 nM

Q: How did the IC50 turn out when `Cc1nc(Oc2cc(Cl)ccc2-c2ncc([C@H](O)CN)cn2)cc(N2CCOCC2)n1` [compound 1377, (1S)-2-amino-1-[2-[4-chloro-2-(2-methyl-6-morpholin-4-ylpyrimidin-4-yl)oxyphenyl]pyrimidin-5-yl]ethanol] was run?
A: 10 to 1000 nM

Q: How did the IC50 turn out when `Cn1nc(C2CC2)cc1Oc1cc(Cl)ccc1-c1ccc(CN)cn1` [compound 1346, [6-[4-chloro-2-(5-cyclopropyl-2-methylpyrazol-3-yl)oxyphenyl]pyridin-3-yl]methanamine] was run?
A: < 10 nM
